Test results as given in BigSolDB 2.1.

N#Cc1ccncc1
solubility (mole fraction) (in acetone, 278.15 K): 0.162 | solubility (mole fraction) (in acetone, 283.15 K): 0.186 | solubility (mole fraction) (in acetone, 288.15 K): 0.217 | solubility (mole fraction) (in acetone, 293.15 K): 0.246 | solubility (mole fraction) (in acetone, 298.15 K): 0.281 | solubility (mole fraction) (in acetone, 303.15 K): 0.318 | solubility (mole fraction) (in acetone, 308.15 K): 0.351 | solubility (mole fraction) (in acetone, 313.15 K): 0.398 | solubility (mole fraction) (in acetone, 318.15 K): 0.444 | solubility (mole fraction) (in ethanol, 278.15 K): 0.0165 | solubility (mole fraction) (in ethanol, 283.15 K): 0.0242 | solubility (mole fraction) (in ethanol, 288.15 K): 0.035 | solubility (mole fraction) (in ethanol, 293.15 K): 0.0506 | solubility (mole fraction) (in ethanol, 298.15 K): 0.073 | solubility (mole fraction) (in ethanol, 303.15 K): 0.101 | solubility (mole fraction) (in ethanol, 308.15 K): 0.142 | solubility (mole fraction) (in ethanol, 313.15 K): 0.19 | solubility (mole fraction) (in ethanol, 318.15 K): 0.261 | solubility (mole fraction) (in methanol, 278.15 K): 0.0384 | solubility (mole fraction) (in methanol, 283.15 K): 0.0504 | solubility (mole fraction) (in methanol, 288.15 K): 0.0656 | solubility (mole fraction) (in methanol, 293.15 K): 0.0854 | solubility (mole fraction) (in methanol, 298.15 K): 0.108 | solubility (mole fraction) (in methanol, 303.15 K): 0.139 | solubility (mole fraction) (in methanol, 308.15 K): 0.179 | solubility (mole fraction) (in methanol, 313.15 K): 0.225 | solubility (mole fraction) (in methanol, 318.15 K): 0.283 | solubility (mole fraction) (in n-propanol, 278.15 K): 0.042 | solubility (mole fraction) (in n-propanol, 283.15 K): 0.0556 | solubility (mole fraction) (in n-propanol, 288.15 K): 0.0718 | solubility (mole fraction) (in n-propanol, 293.15 K): 0.0926 | solubility (mole fraction) (in n-propanol, 298.15 K): 0.118 | solubility (mole fraction) (in n-propanol, 303.15 K): 0.147 | solubility (mole fraction) (in n-propanol, 308.15 K): 0.184 | solubility (mole fraction) (in n-propanol, 313.15 K): 0.237 | solubility (mole fraction) (in n-propanol, 318.15 K): 0.303 | solubility (mole fraction) (in water, 278.15 K): 0.00264 | solubility (mole fraction) (in water, 283.15 K): 0.00327 | solubility (mole fraction) (in water, 288.15 K): 0.004 | solubility (mole fraction) (in water, 293.15 K): 0.00494 | solubility (mole fraction) (in water, 298.15 K): 0.00603 | solubility (mole fraction) (in water, 303.15 K): 0.00727 | solubility (mole fraction) (in water, 308.15 K): 0.00875 | solubility (mole fraction) (in water, 313.15 K): 0.0104 | solubility (mole fraction) (in water, 318.15 K): 0.0123
